pIC50: −log10 of the molar value.
System: 422866-222-R5-J1-PDC spheroids with HUVEC/MSC, viability
Assay: Anticancer human tumor 422866-222-R5-J1-PDC patient-derived pancreatic adenocarcinoma cell line growth inhibition [GQUAD]
Conditions: for pIC50: curve of first compound; for viability, T/C: stronger effect = lower value
Summary of the method: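 Tumor cells were grown as complex spheroids with HUVEC endothelial cells and mesenchymal stem cells as stroma. G-quadruplex stabilizers were combined with targeted agents over half-log dilutions from near the clinical Cmax, or from 10 microM.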

[1] = second compound 0.0316 µM, first compound 0.000999 µM
[2] = second compound 0.0316 µM, first compound 0.00316 µM
[3] = second compound 0.0316 µM, first compound 0.00999 µM
[4] = second compound 0.0316 µM, first compound 0.0316 µM
[5] = second compound 0.0316 µM, first compound 0.0999 µM
[6] = second compound 0.0316 µM, first compound 0.316 µM
[7] = second compound 0.1 µM, first compound 0.000999 µM
[8] = second compound 0.1 µM, first compound 0.00316 µM
[9] = second compound 0.1 µM, first compound 0.00999 µM
[10] = second compound 0.1 µM, first compound 0.0316 µM
[11] = second compound 0.1 µM, first compound 0.0999 µM
[12] = second compound 0.1 µM, first compound 0.316 µM
[13] = second compound 0.316 µM, first compound 0.000999 µM
[14] = second compound 0.316 µM, first compound 0.00316 µM
[15] = second compound 0.316 µM, first compound 0.00999 µM
[16] = second compound 0.316 µM, first compound 0.0316 µM
[17] = second compound 0.316 µM, first compound 0.0999 µM
[18] = second compound 0.316 µM, first compound 0.316 µM
[19] = second compound 1 µM, first compound 0.000999 µM
[20] = second compound 1 µM, first compound 0.00316 µM
[21] = second compound 1 µM, first compound 0.00999 µM
[22] = second compound 1 µM, first compound 0.0316 µM
[23] = second compound 1 µM, first compound 0.0999 µM
[24] = second compound 1 µM, first compound 0.316 µM
[25] = second compound 3.16 µM, first compound 0.000999 µM
[26] = second compound 3.16 µM, first compound 0.00316 µM
[27] = second compound 3.16 µM, first compound 0.00999 µM
[28] = second compound 3.16 µM, first compound 0.0316 µM
[29] = second compound 3.16 µM, first compound 0.0999 µM
[30] = second compound 3.16 µM, first compound 0.316 µM
[31] = second compound 10 µM, first compound 0.000999 µM
[32] = second compound 10 µM, first compound 0.00316 µM
[33] = second compound 10 µM, first compound 0.00999 µM
[34] = second compound 10 µM, first compound 0.0316 µM
[35] = second compound 10 µM, first compound 0.0999 µM
[36] = second compound 10 µM, first compound 0.316 µM
[37] = second compound 0.0316 µM, first compound 0.1 µM
[38] = second compound 0.0316 µM, first compound 1 µM
[39] = second compound 0.0316 µM, first compound 3.16 µM
[40] = second compound 0.0316 µM, first compound 10 µM
[41] = second compound 0.1 µM, first compound 0.1 µM
[42] = second compound 0.1 µM, first compound 1 µM
[43] = second compound 0.1 µM, first compound 3.16 µM
[44] = second compound 0.1 µM, first compound 10 µM
[45] = second compound 0.316 µM, first compound 0.1 µM
[46] = second compound 0.316 µM, first compound 1 µM
[47] = second compound 0.316 µM, first compound 3.16 µM
[48] = second compound 0.316 µM, first compound 10 µM
[49] = second compound 1 µM, first compound 0.1 µM
[50] = second compound 1 µM, first compound 1 µM
[51] = second compound 1 µM, first compound 3.16 µM
[52] = second compound 1 µM, first compound 10 µM
[53] = second compound 3.16 µM, first compound 0.1 µM
[54] = second compound 3.16 µM, first compound 1 µM
[55] = second compound 3.16 µM, first compound 3.16 µM
[56] = second compound 3.16 µM, first compound 10 µM
[57] = second compound 10 µM, first compound 0.1 µM
[58] = second compound 10 µM, first compound 1 µM
[59] = second compound 10 µM, first compound 3.16 µM
[60] = second compound 10 µM, first compound 10 µM
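Further: spheroids exposed to compounds for seven days before reading.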
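Wherever viability, T/C is given: percent viability relative to DMSO vehicle control taken as 100%.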

In the case of `CC[C@@]1(O)C(=O)OCc2c1cc1n(c2=O)Cc2cc3c(CN(C)C)c(O)ccc3nc2-1` + CN(C)c1ccc(Nc2c3ccc(NC(=O)CCN4CCCC4)cc3nc3cc(NC(=O)CCN4CCCC4)ccc23)cc1, the pIC50 (second compound 0.0316 µM) was 7.03, the pIC50 (second compound 0.1 µM) was < 6.50 and the pIC50 (second compound 0.316 µM) was 7.05. The pIC50 (second compound 1 µM) was 6.87, the pIC50 (second compound 3.16 µM) was 7.07 and the pIC50 (second compound 10 µM) was 6.76. For the same molecule, the viability, T/C [1] was 99.1%, the viability, T/C [2] was 95.8% and the viability, T/C [3] was 96%. The viability, T/C [4] was 76%, the viability, T/C [5] was 47.3% and the viability, T/C [6] was 49.7%. For the same molecule, the viability, T/C [7] was 87.2%, the viability, T/C [8] was 104% and the viability, T/C [9] was 98%. The viability, T/C [10] was 64.3%, the viability, T/C [11] was 50.9% and the viability, T/C [12] was 48.7%. It also gave a viability, T/C [13] of 90.9%, a viability, T/C [14] of 78.6% and a viability, T/C [15] of 95.2%. For the same molecule, the viability, T/C [16] was 65.1%, the viability, T/C [17] was 48.3% and the viability, T/C [18] was 48.6%. It also gave a viability, T/C [19] of 96.8%, a viability, T/C [20] of 92.9% and a viability, T/C [21] of 78.6%. The viability, T/C [22] was 69.8%, the viability, T/C [23] was 56.5% and the viability, T/C [24] was 35.8%. It also gave a viability, T/C [25] of 84.1%, a viability, T/C [26] of 79.2% and a viability, T/C [27] of 87.8%. It also gave a viability, T/C [28] of 72.5%, a viability, T/C [29] of 46.1% and a viability, T/C [30] of 46.7%. For the same molecule, the viability, T/C [31] was 77.5%, the viability, T/C [32] was 96.3% and the viability, T/C [33] was 91.8%. It also gave a viability, T/C [34] of 69.8%, a viability, T/C [35] of 61.4% and a viability, T/C [36] of 40.3%.

For `COc1cc(C2c3cc4c(cc3C(OC3OC5COC(C)OC5C(O)C3O)C3COC(=O)C23)OCO4)cc(OC)c1O` (stereo not drawn) + CN(C)c1ccc(Nc2c3ccc(NC(=O)CCN4CCCC4)cc3nc3cc(NC(=O)CCN4CCCC4)ccc23)cc1, the pIC50 (second compound 0.0316 µM) was 5.72, the pIC50 (second compound 0.1 µM) was 5.82 and the pIC50 (second compound 0.316 µM) was 5.48. For the same molecule, the pIC50 (second compound 1 µM) was 6.03, the pIC50 (second compound 3.16 µM) was 5.51 and the pIC50 (second compound 10 µM) was 5.36. It also gave a viability, T/C [4] of 97.3%, a viability, T/C [37] of 89% and a viability, T/C [6] of 84.5%. It also gave a viability, T/C [38] of 57.5%, a viability, T/C [39] of 41.4% and a viability, T/C [40] of 45.4%. It also gave a viability, T/C [10] of 116%, a viability, T/C [41] of 86.6% and a viability, T/C [12] of 70.9%. It also gave a viability, T/C [42] of 54.1%, a viability, T/C [43] of 40.9% and a viability, T/C [44] of 38.2%. It also gave a viability, T/C [16] of 101%, a viability, T/C [45] of 92.9% and a viability, T/C [18] of 73.8%. For the same molecule, the viability, T/C [46] was 59.2%, the viability, T/C [47] was 50.7% and the viability, T/C [48] was 46.3%. It also gave a viability, T/C [22] of 92%, a viability, T/C [49] of 79.4% and a viability, T/C [24] of 63.9%. It also gave a viability, T/C [50] of 47.1%, a viability, T/C [51] of 44.4% and a viability, T/C [52] of 38.1%. The viability, T/C [28] was 85.7%, the viability, T/C [53] was 76.2% and the viability, T/C [30] was 65.9%. For the same molecule, the viability, T/C [54] was 56.2%, the viability, T/C [55] was 49.9% and the viability, T/C [56] was 46%. For the same molecule, the viability, T/C [34] was 73.2%, the viability, T/C [57] was 80.8% and the viability, T/C [36] was 67.1%. For the same molecule, the viability, T/C [58] was 63.9%, the viability, T/C [59] was 55.9% and the viability, T/C [60] was 38.2%.

With `Cc1cccc(N(C)C(=O)C2C(O)CCN2c2nc(C)cc(C(F)(F)F)c2C#N)c1` (stereo not drawn) + CN(C)c1ccc(Nc2c3ccc(NC(=O)CCN4CCCC4)cc3nc3cc(NC(=O)CCN4CCCC4)ccc23)cc1 the pIC50 (second compound 0.0316 µM) was < 5.00, the pIC50 (second compound 0.1 µM) was < 5.00 and the pIC50 (second compound 0.316 µM) was < 5.00. For the same molecule, the pIC50 (second compound 1 µM) was < 5.00, the pIC50 (second compound 3.16 µM) was < 5.00 and the pIC50 (second compound 10 µM) was < 5.00. For the same molecule, the viability, T/C [4] was 119%, the viability, T/C [37] was 98.6% and the viability, T/C [6] was 104%. The viability, T/C [38] was 88.3%, the viability, T/C [39] was 96.6% and the viability, T/C [40] was 107%. For the same molecule, the viability, T/C [10] was 92.1%, the viability, T/C [41] was 81% and the viability, T/C [12] was 105%. For the same molecule, the viability, T/C [42] was 80.1%, the viability, T/C [43] was 102% and the viability, T/C [44] was 99.5%. The viability, T/C [16] was 97.8%, the viability, T/C [45] was 69.4% and the viability, T/C [18] was 80.6%. For the same molecule, the viability, T/C [46] was 86.2%, the viability, T/C [47] was 103% and the viability, T/C [48] was 111%. The viability, T/C [22] was 84.4%, the viability, T/C [49] was 86.1% and the viability, T/C [24] was 80.7%. The viability, T/C [50] was 91.7%, the viability, T/C [51] was 101% and the viability, T/C [52] was 93.2%. For the same molecule, the viability, T/C [28] was 77.9%, the viability, T/C [53] was 70.4% and the viability, T/C [30] was 79.7%. It also gave a viability, T/C [54] of 85.6%, a viability, T/C [55] of 88.8% and a viability, T/C [56] of 93.6%. The viability, T/C [34] was 72.6%, the viability, T/C [57] was 90.5% and the viability, T/C [36] was 98.3%. It also gave a viability, T/C [58] of 82.4%, a viability, T/C [59] of 82.4% and a viability, T/C [60] of 85%.

With `Cn1ncnc1[C@H]1c2n[nH]c(=O)c3cc(F)cc(c23)N[C@@H]1c1ccc(F)cc1` + CN(C)c1ccc(Nc2c3ccc(NC(=O)CCN4CCCC4)cc3nc3cc(NC(=O)CCN4CCCC4)ccc23)cc1 the pIC50 (second compound 0.0316 µM) was < 6.50, the pIC50 (second compound 0.1 µM) was < 6.50 and the pIC50 (second compound 0.316 µM) was < 6.50. The pIC50 (second compound 1 µM) was < 6.50, the pIC50 (second compound 3.16 µM) was < 6.50 and the pIC50 (second compound 10 µM) was < 6.50. It also gave a viability, T/C [1] of 112%, a viability, T/C [2] of 93.7% and a viability, T/C [3] of 108%. For the same molecule, the viability, T/C [4] was 97.2%, the viability, T/C [5] was 80.6% and the viability, T/C [6] was 75.1%. For the same molecule, the viability, T/C [7] was 113%, the viability, T/C [8] was 95.9% and the viability, T/C [9] was 88%. It also gave a viability, T/C [10] of 93.5%, a viability, T/C [11] of 83% and a viability, T/C [12] of 75.7%. It also gave a viability, T/C [13] of 94.1%, a viability, T/C [14] of 90% and a viability, T/C [15] of 81.5%. For the same molecule, the viability, T/C [16] was 85%, the viability, T/C [17] was 89.1% and the viability, T/C [18] was 67.3%. For the same molecule, the viability, T/C [19] was 78.9%, the viability, T/C [20] was 81.3% and the viability, T/C [21] was 75.9%. The viability, T/C [22] was 91.5%, the viability, T/C [23] was 73.7% and the viability, T/C [24] was 72%. For the same molecule, the viability, T/C [25] was 72.3%, the viability, T/C [26] was 69.7% and the viability, T/C [27] was 89.5%. For the same molecule, the viability, T/C [28] was 83%, the viability, T/C [29] was 80.1% and the viability, T/C [30] was 80.3%. For the same molecule, the viability, T/C [31] was 97.7%, the viability, T/C [32] was 85.1% and the viability, T/C [33] was 97.4%. It also gave a viability, T/C [34] of 90.4%, a viability, T/C [35] of 71.8% and a viability, T/C [36] of 82.1%.

Reference: PubChem BioAssay AID2060511 (Molecular Pharmacology Branch, DTP, NCI, 2025)
